Here are results for five compounds from patent US8097623B2, “Indoles useful in the treatment of inflammation” (Biolipox AB, priority 2005, dated 2012).

Each structure is given as a SMILES string.

For this test, the target named is T1, mPGES-1 (Homo sapiens, UniProt O14684).
T1 construct: made in house; host or cells: E. coli
T1 sequence (O14684 1-152): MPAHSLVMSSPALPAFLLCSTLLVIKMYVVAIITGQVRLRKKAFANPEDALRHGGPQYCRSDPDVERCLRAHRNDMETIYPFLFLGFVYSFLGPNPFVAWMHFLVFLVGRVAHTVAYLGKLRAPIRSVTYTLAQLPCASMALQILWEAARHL
Put plainly: mPGES-1 biological test: conversion of PGH2 to PGE2, PGE2 quantified by HPLC. The class given is biochemical. As to conditions: mPGES-1 expressed in E. coli, membrane fraction; 25 min preincubation with inhibitor, 60 s with PGH2, room temperature; read-out: IC50 (inhibition of mPGES-1). On the procedure:
In the assay mPGES-1 catalyses the reaction where the substrate PGH2 is converted to PGE2. mPGES-1 is expressed in E. coli and the membrane fraction is dissolved in 20 mM NaPi-buffer pH 8.0 and stored at −80° C. In the assay mPGES-1 is dissolved in 0.1M KPi-buffer pH 7.35 with 2.5 mM glutathione. The stop solution consists of H2O/MeCN (7/3), containing FeCl2 (25 mM) and HCl (0.15 M). The assay is performed at room temperature in 96-well plates. Analysis of the amount of PGE2 is performed with reversed phase HPLC (Waters 2795 equipped with a 3.9×150 mm C18 column). The mobile phase consists of H2O/MeCN (7/3), containing TFA (0.056%), and absorbance is measured at 195 nm with a Waters 2487 UV-detector.
The following is added chronologically to each well: • 1. 100 μL mPGES-1 in KPi-buffer with glutathione. Total protein concentration: 0.02 mg/mL. • 2. 1 μL inhibitor in DMSO. Incubation of the plate at room temperature for 25 minutes. • 3. 4 μL of a 0.25 mM PGH2 solution. Incubation of the plate at room temperature for 60 seconds. • 4. […] stop solution. • 180 μL per sample is analyzed with HPLC.
On to `CC(C)Oc1ccc(-n2c(C(=O)O)c(CCC(=O)O)c3cc(-c4ccc(C(F)(F)F)cn4)ccc32)cc1` [Example 88, 3-(2-Carboxyethyl)-1-(4-isopropoxyphenyl)-5-(5-trifluoromethylpyridin-2-yl)indole-2-carboxylic acid], for which the IC50 – broadly, the concentration needed to halve the response being measured – worked out at 5.4 µM.

Take `CC(=O)NC(Cc1c(C(=O)O)n(-c2ccc(OC3CCCC3)cc2)c2ccc(-c3ccc(C(F)(F)F)cc3)cc12)C(=O)O` (centres unmarked) [Example 85, 3-(2-Acetylamino-2-carboxyethyl)-1-(4-cyclopentyloxyphenyl)-5-(4-trifluoromethylphenyl)indole-2-carboxylic acid]: the IC50 came to 6.9 µM. As for `CCOC(=O)c1c(C(=O)O)c2cc(-c3ccc(C(F)(F)F)cc3)ccc2n1-c1ccc(OC2CCCC2)cc1` [Example 67, 1-(4-Cyclopentyloxyphenyl)-5-(4-trifluoromethylphenyl)indole-2,3-dicarboxylic acid 2-ethyl ester], the figure is 1.9 µM; as for `CC(C)Oc1ccc(-n2c(C(=O)O)c(CN3CCCC3C(=O)O)c3cc(-c4ccc(C(C)(C)C)cc4)ccc32)cc1` (centres unmarked) [Example 87, 1-[5-(4-tert-Butylphenyl)-2-carboxy-1-(4-isopropoxyphenyl)indol-3-ylmethyl]-2-carboxypyrrolidinium chloride], 2.3 µM; as for `CC(C)Oc1ccc(-n2c(C(=O)O)c(C(=O)O)c3cc(Oc4ccc(C(F)(F)F)cn4)ccc32)cc1` [Example 19, 1-(4-Isopropoxyphenyl)-5-(5-trifluoromethylpyridin-2-yloxy)indole-2,3-dicarboxylic acid], 4.3 µM.
